Values of other authors in patent US12102628B2, “Composition and methods for the treatment of myopia” (Seinda Pharmaceutical Guangzhou Corporation, priority 2017, dated 2024).
Like-named read-outs stand apart in the source and are kept apart here.

Assays:
myopic children = details: for Myopia progression: myopic children
[1] = ophthalmic use, concentrations per Table 2
[2] = not given; remark: listed apart in the source
M3 receptor = M3 receptor (Homo sapiens, UniProt P20309); details: M3 receptor-selective antagonists
Sequence of M3 receptor (P20309 whole entry): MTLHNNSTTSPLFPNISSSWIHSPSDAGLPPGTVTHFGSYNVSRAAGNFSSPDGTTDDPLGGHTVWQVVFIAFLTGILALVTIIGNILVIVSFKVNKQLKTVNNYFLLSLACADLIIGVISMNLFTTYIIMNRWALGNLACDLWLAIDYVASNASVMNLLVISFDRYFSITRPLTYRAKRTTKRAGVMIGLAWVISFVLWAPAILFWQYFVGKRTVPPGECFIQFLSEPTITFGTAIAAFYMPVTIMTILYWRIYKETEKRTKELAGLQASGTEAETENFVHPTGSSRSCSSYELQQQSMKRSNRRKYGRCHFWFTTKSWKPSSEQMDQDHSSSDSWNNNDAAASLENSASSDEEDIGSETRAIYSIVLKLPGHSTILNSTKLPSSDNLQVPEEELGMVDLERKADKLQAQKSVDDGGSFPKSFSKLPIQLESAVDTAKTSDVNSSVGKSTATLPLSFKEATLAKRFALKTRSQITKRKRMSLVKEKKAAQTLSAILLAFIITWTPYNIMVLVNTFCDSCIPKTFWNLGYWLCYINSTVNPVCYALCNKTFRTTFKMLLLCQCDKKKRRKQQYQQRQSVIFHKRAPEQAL

| Compound | Acting Duration [1] [days] | logP | Aqueous Solubility [2] [mg/mL] | further results |
| --- | --- | --- | --- | --- |
| CN1[C@@H]2CC[C@H]1C[C@@H](OC(=O)C(CO)c1ccccc1)C2 (stereo partly drawn) [Atropine, atropine] | 7 to 14 | – | – | Pupil dilation diameter (pupil; 0.05% atropine solution, control group 2.93 mm): 5.52 mm; Photophobia ratio (pupil; low concentration atropine group): about 66.67%; Effect on myopia progression (in words) (myopic children; 0.5% atropine solution): effectively slow the myopia progression; Myopia progression (myopic children; atropine concentration 0.1%): 0.47 diopter/yr; Myopia progression (myopic children; atropine concentration 0.25%): 0.45 diopter/yr; Myopia progression (myopic children; atropine concentration 0.5%): 0.04 diopter/yr |
| CN(C)CCOC(=O)C(c1ccccc1)C1(O)CCCC1 (stereo not drawn) [Cyclopentolate] | 4 | – | – | – |
| NC(=O)C(c1ccccc1)(c1ccccc1)[C@@H]1CCN(CCc2ccc3c(c2)CCO3)C1 [Darifenacin] | – | 4.5 | 6.03 | – |
| CN1CCN(CC(=O)N2c3ccccc3C(=O)Nc3cccnc32)CC1 [Pirenzepine] | <1 | – | – | – |
| c1ccc(C(O[C@@H]2CCCN(CCc3ccc4c(c3)OCO4)C2)c2ccccc2)cc1 [Zamifenacin] | – | 4.4 | 0.02 | Affinity (pKi) (M3 receptor): 9.3 |
| Tiotropium | – | – | 25 | – |
